Data taken from US20250163057A1, “DCN-1 MODULATING COMPOUNDS AND METHODS OF USE THEREOF” (Cellarity, Inc., priority 2023, published 2025).
Like-named read-outs stand apart in the source and are kept apart here.

Assays:
[1] = test system: fetal hemoglobin gene HBG1; experiment: HBG1 Nanostring Assay in CD34+ HSPC erythroid differentiation culture; type: cell-based, human; conditions: for EC50: Homo sapiens, 240 h, HBG1 induction, Day10 of erythroid differentiation; for Nanostring Ymax obs (%): relative to a control compound (C1)
Method in brief: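 HBG1 counts came from direct nCounter hybridization (67° C, 22 h) of day-10 lysates, normalized to ERCC positive controls and a housekeeping gene, giving EC50 and Ymax versus a reference compound. Compounds in 0.1% DMSO were present from day −2 while cells underwent EPO/SCF/IL-3 erythroid differentiation, with IL-3 dropped at day 7, at 37° C.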

[2] = test system: Cullin-3 (CUL3) neddylation; experiment: AlphaLISA assay for Cullin-3 (CUL3) neddylation in TF 1 cells; type: cell-based; conditions: Homo sapiens, TF-1, 3 h, 3 hours treatment
Method in brief: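 Neddylated CUL3 was quantified by AlphaLISA in lysates of TF 1 cells exposed for 3 h to test compound in IMDM without supplements. Percent inhibition set between vehicle and 1 μM DI-1548 positive control; IC50 derived by Hill-equation fitting of dose-response curves.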

[3] = target: DCN1 (DCUND1) protein PONY domain (Homo sapiens (Human), UniProt Q96GG9); experiment: TR-FRET assay, DCN1 binding with FAM-labeled probe
Sequence of DCN1 (DCUND1) protein PONY domain (Q96GG9 60-248): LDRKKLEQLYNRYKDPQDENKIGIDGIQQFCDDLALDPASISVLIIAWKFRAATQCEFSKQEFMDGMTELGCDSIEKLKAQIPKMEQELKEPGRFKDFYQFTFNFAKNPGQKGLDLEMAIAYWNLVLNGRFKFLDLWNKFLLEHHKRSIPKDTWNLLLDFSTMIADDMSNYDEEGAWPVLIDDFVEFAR
Method in brief: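 Biotinylated DCN1 PONY domain, labeled with streptavidin-Tb, was competed against a FAM-labeled non-covalent DCN1 inhibitor probe in buffer with TritonX and 200 mM NaCl. Conditions were 5 nM DCN1 with 20 nM FAM-probe, or 0.31 nM DCN1 with 100 nM FAM-plus 800 nM unlabeled probe. The TR-FRET ratio was read at 1, 5 and 24 h (0.1% DMSO).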

[4] = target: DCN1 protein (Homo sapiens (Human), UniProt Q96GG9); experiment: Intact Protein MS Analysis with the RapidFire-TOF System (covalent adduct formation); type: binding; conditions: MS Emax; 400 nM DCN1, 3 hours at room temperature
Sequence of DCN1 protein (Q96GG9 whole entry): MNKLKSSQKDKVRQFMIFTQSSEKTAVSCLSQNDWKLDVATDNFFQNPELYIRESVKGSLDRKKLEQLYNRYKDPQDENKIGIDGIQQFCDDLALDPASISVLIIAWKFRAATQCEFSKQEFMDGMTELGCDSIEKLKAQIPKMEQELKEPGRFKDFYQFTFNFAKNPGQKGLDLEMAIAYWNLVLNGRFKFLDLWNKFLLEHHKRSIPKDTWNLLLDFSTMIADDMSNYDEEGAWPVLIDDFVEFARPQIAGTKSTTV
Method in brief: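 Tag-cleaved human DCN1 (400 nM) expressed in E. coli, in 25 mM Tris-HCl, 200 mM NaCl, 1 mM DTT, was incubated with 11 compound concentrations for 3 h at room temperature and quenched with 0.2% formic acid. Intact-protein Q-TOF MS with deconvolution detected the compound adduct mass.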

[5] = 24 hr after treatment with compound, read-out: TR FRET IC50 24 hr
[6] = TR FRET IC50 1 hr (nM), 1 hr after treatment with compound
[7] = read-out: TR FRET IC50 1 hr, 1 hr after treatment with compound

CCN1C(=O)[C@@H](NC(=O)c2cccc(C(F)(F)F)c2)[C@@H](c2ccc(F)cc2)c2c(NC(=O)[C@@H](C)Cl)nn(-c3ccccc3)c21 (mixture of isomers) [Compound I-101]
EC50 [1]: > 1000 nM | Nanostring Ymax obs (%) [1]: ++ (Nanostring Ymax greater than 50.0 and less than or equal to 100.0) | IC50 [2]: 100 to 1000 nM | IC50 [3, 5]: 200 to 1000 nM | IC50 [3, 6]: 200 to 1000 nM | % Adduct Formation [4]: + (MS Emax % adduct formation greater than or equal to 0.0 and less than or equal to 30.0)

C=CC(=O)N[C@@H](C)c1nn(-c2ccccc2)c2c1[C@H](c1ccc(F)cc1)[C@H](NC(=O)c1cccc(C(F)(F)F)c1)C(=O)N2CC (mixture of isomers) [Compound I-143]
EC50 [1]: > 1000 nM | Nanostring Ymax obs (%) [1]: + (Nanostring Ymax greater than or equal to 0.0 and less than or equal to 50.0) | IC50 [2]: > 1000 nM | IC50 [3, 5]: 200 to 1000 nM | IC50 [3, 6]: 200 to 1000 nM | % Adduct Formation [4]: + (MS Emax % adduct formation greater than or equal to 0.0 and less than or equal to 30.0)

CCN1C(=O)[C@@H](NC(=O)c2cccc(C(F)(F)F)c2)[C@@H](c2ccc(F)cc2)c2c(C(=O)N3CCCC[C@H]3C#N)nn(-c3ccccc3)c21 (mixture of isomers) [Compound I-270]
EC50 [1]: 100 to 1000 nM | Nanostring Ymax obs (%) [1]: ++ (Nanostring Ymax greater than 50.0 and less than or equal to 100.0) | IC50 [2]: ≤ 100 nM | IC50 [3, 5]: ≤ 200 nM | IC50 [3, 7]: ≤ 200 nM | % Adduct Formation [4]: +++ (MS Emax % adduct formation greater than 80.0 and less than or equal to 100.0)

CCN1C(=O)[C@@H](NC(=O)c2cccc(C(F)(F)F)c2)[C@@H](c2ccc(F)cc2)c2c(C(=O)N3C[C@H](F)C[C@H]3C#N)nn(-c3ccccc3)c21 (mixture of isomers) [Compound I-273]
Nanostring Ymax obs (%) [1]: +++ (Nanostring Ymax greater than 100.0) | IC50 [2]: ≤ 100 nM | IC50 [3, 5]: ≤ 200 nM | IC50 [3, 7]: ≤ 200 nM | % Adduct Formation [4]: +++ (MS Emax % adduct formation greater than 80.0 and less than or equal to 100.0)

CCN1C(=O)[C@@H](NC(=O)c2cccc(C(F)(F)F)c2)[C@@H](c2ccc(F)cc2)c2c(C(=O)N3CCC[C@H]3C#N)nn(C3CCOCC3)c21 (mixture of isomers) [Compound I-292]
EC50 [1]: ≤ 100 nM | Nanostring Ymax obs (%) [1]: +++ (Nanostring Ymax greater than 100.0) | IC50 [2]: ≤ 100 nM | IC50 [3, 5]: ≤ 200 nM | IC50 [3, 7]: ≤ 200 nM | % Adduct Formation [4]: +++ (MS Emax % adduct formation greater than 80.0 and less than or equal to 100.0)

CCN1C(=O)[C@@H](NC(=O)c2cccc(C(F)(F)F)c2)[C@@H](C)c2c(C(=O)N3[C@H](C#N)C[C@H]4C[C@H]43)nn(C3CCOCC3)c21 (mixture of isomers) [Compound I-386]
EC50 [1]: ≤ 100 nM | Nanostring Ymax obs (%) [1]: +++ (Nanostring Ymax greater than 100.0) | IC50 [2]: ≤ 100 nM | IC50 [3, 5]: ≤ 200 nM | IC50 [3, 7]: ≤ 200 nM | % Adduct Formation [4]: +++ (MS Emax % adduct formation greater than 80.0 and less than or equal to 100.0)

C=CS(=O)(=O)N(C)Cc1nn(-c2ccccc2)c2c1[C@H](c1ccc(F)cc1)[C@H](NC(=O)c1cccc(C(F)(F)F)c1)C(=O)N2CC (racemic) [Compound I-1]
EC50 [1]: > 1000 nM | Nanostring Ymax obs (%) [1]: ++ (Nanostring Ymax greater than 50.0 and less than or equal to 100.0) | IC50 [2]: ≤ 100 nM | IC50 [3, 5]: ≤ 200 nM | IC50 [3, 7]: ≤ 200 nM | % Adduct Formation [4]: +++ (MS Emax % adduct formation greater than 80.0 and less than or equal to 100.0)

C=C(CC(=O)NCc1nn(-c2ccccc2)c2c1[C@H](c1ccc(F)cc1)[C@H](NC(=O)c1cccc(C(F)(F)F)c1)C(=O)N2CC)C(=O)OC (racemic) [Compound I-4]
EC50 [1]: 100 to 1000 nM | Nanostring Ymax obs (%) [1]: ++ (Nanostring Ymax greater than 50.0 and less than or equal to 100.0) | IC50 [2]: ≤ 100 nM | IC50 [3, 5]: ≤ 200 nM | IC50 [3, 6]: ≤ 200 nM | % Adduct Formation [4]: +++ (MS Emax % adduct formation greater than 80.0 and less than or equal to 100.0)

CCN1C(=O)[C@@H](NC(=O)c2cccc(C(F)(F)F)c2)[C@@H](c2ccc(F)cc2)c2c(CNC(=O)C(C)(C)C#N)nn(-c3ccccc3)c21 (racemic) [Compound I-7, rac-N-((4R,5R)-3-((2-cyano-2-methylpropanamido)methyl)-7-ethyl-4-(4-fluorophenyl)-6-oxo-1-phenyl-4,5,6,7-tetrahydro-1H-pyrazolo[3,4-b]pyridine-5-yl)-3-(trifluoromethyl)benzamide]
EC50 [1]: > 1000 nM | Nanostring Ymax obs (%) [1]: + (Nanostring Ymax greater than or equal to 0.0 and less than or equal to 50.0) | IC50 [2]: 100 to 1000 nM | IC50 [3, 5]: 1000 to 3000 nM | IC50 [3, 6]: 1000 to 3000 nM | % Adduct Formation [4]: + (MS Emax % adduct formation greater than or equal to 0.0 and less than or equal to 30.0)

CCN1C(=O)[C@@H](NC(=O)c2cccc(C(F)(F)F)c2)[C@@H](c2ccc(F)cc2)c2c(CNC(=O)C#CCN(C)C)nn(-c3ccccc3)c21 (racemic) [Compound I-19, rac-N-((4R,5R)-3-((4-(dimethylamino)but-2-ynamido)methyl)-7-ethyl-4-(4-fluorophenyl)-6-oxo-1-phenyl-4,5,6,7-tetrahydro-1H-pyrazolo[3,4-b]pyridine-5-yl)-3-(trifluoromethyl)benzamide]
EC50 [1]: ≤ 100 nM | Nanostring Ymax obs (%) [1]: +++ (Nanostring Ymax greater than 100.0) | IC50 [2]: ≤ 100 nM | IC50 [3, 5]: ≤ 200 nM | IC50 [3, 6]: ≤ 200 nM | % Adduct Formation [4]: +++ (MS Emax % adduct formation greater than 80.0 and less than or equal to 100.0)

C=C(C)C(=O)Nc1nn(-c2ccccc2)c2c1[C@H](c1ccc(F)cc1)[C@H](NC(=O)c1cccc(C(F)(F)F)c1)C(=O)N2CC (racemic) [Compound I-26]
EC50 [1]: 100 to 1000 nM | Nanostring Ymax obs (%) [1]: ++ (Nanostring Ymax greater than 50.0 and less than or equal to 100.0) | IC50 [2]: 100 to 1000 nM | IC50 [3, 5]: ≤ 200 nM | IC50 [3, 7]: ≤ 200 nM | % Adduct Formation [4]: + (MS Emax % adduct formation greater than or equal to 0.0 and less than or equal to 30.0)

C/C=C(\CN1CCOCC1)C(=O)NCc1nn(-c2ccccc2)c2c1[C@@H](c1ccc(F)cc1)[C@H](NC(=O)c1cccc(C(F)(F)F)c1)C(=O)N2CC (racemic) [Compound I-27]
EC50 [1]: 100 to 1000 nM | Nanostring Ymax obs (%) [1]: ++ (Nanostring Ymax greater than 50.0 and less than or equal to 100.0) | IC50 [2]: ≤ 100 nM | IC50 [3, 5]: ≤ 200 nM | IC50 [3, 7]: ≤ 200 nM | % Adduct Formation [4]: + (MS Emax % adduct formation greater than or equal to 0.0 and less than or equal to 30.0)

C=CC(=O)N(C)Cc1nn(-c2ccccc2)c2c1[C@H](c1ccc(F)cc1)[C@H](NC(=O)c1cccc(C(F)(F)F)c1)C(=O)N2CC (racemic) [Compound I-29]
EC50 [1]: > 1000 nM | Nanostring Ymax obs (%) [1]: + (Nanostring Ymax greater than or equal to 0.0 and less than or equal to 50.0) | IC50 [2]: > 1000 nM | IC50 [3, 5]: 1000 to 3000 nM | IC50 [3, 6]: 1000 to 3000 nM | % Adduct Formation [4]: + (MS Emax % adduct formation greater than or equal to 0.0 and less than or equal to 30.0)

C=C(CN1CCC(F)(F)C1)C(=O)NCc1nn(-c2ccccc2)c2c1[C@H](c1ccc(F)cc1)[C@@H](NC(=O)c1cccc(C(F)(F)F)c1)C(=O)N2CC (racemic) [Compound I-32]
EC50 [1]: 100 to 1000 nM | Nanostring Ymax obs (%) [1]: ++ (Nanostring Ymax greater than 50.0 and less than or equal to 100.0) | IC50 [2]: ≤ 100 nM | IC50 [3, 5]: ≤ 200 nM | IC50 [3, 7]: ≤ 200 nM | % Adduct Formation [4]: + (MS Emax % adduct formation greater than or equal to 0.0 and less than or equal to 30.0)

C=C(C(=O)OCC)c1nn(-c2ccccc2)c2c1[C@H](c1ccc(F)cc1)[C@H](NC(=O)c1cccc(C(F)(F)F)c1)C(=O)N2CC (racemic) [Compound I-35, rac-ethyl 2-((4R,5R)-7-ethyl-4-(4-fluorophenyl)-6-oxo-1-phenyl-5-(3-(trifluoromethyl)benzamido)-4,5,6,7-tetrahydro-1H-pyrazolo[3,4-b]pyridine-3-yl)acrylate]
EC50 [1]: 100 to 1000 nM | Nanostring Ymax obs (%) [1]: + (Nanostring Ymax greater than or equal to 0.0 and less than or equal to 50.0) | IC50 [2]: 100 to 1000 nM | IC50 [3, 5]: ≤ 200 nM | IC50 [3, 6]: > 3000 nM | % Adduct Formation [4]: + (MS Emax % adduct formation greater than or equal to 0.0 and less than or equal to 30.0)

CCN1C(=O)[C@@H](NC(=O)c2cccc(C(F)(F)F)c2)[C@@H](c2ccc(F)cc2)c2c(CNC(=O)C3(C#N)CC3)nn(-c3ccccc3)c21 (racemic) [Compound I-37, rac-N-((4R,5R)-3-((1-cyanocyclopropane-1-carboxamido)methyl)-7-ethyl-4-(4-fluorophenyl)-6-oxo-1-phenyl-4,5,6,7-tetrahydro-1H-pyrazolo[3,4-b]pyridine-5-yl)-3-(trifluoromethyl)benzamide]
EC50 [1]: > 1000 nM | Nanostring Ymax obs (%) [1]: + (Nanostring Ymax greater than or equal to 0.0 and less than or equal to 50.0) | IC50 [2]: 100 to 1000 nM | IC50 [3, 5]: 1000 to 3000 nM | IC50 [3, 6]: 1000 to 3000 nM | % Adduct Formation [4]: + (MS Emax % adduct formation greater than or equal to 0.0 and less than or equal to 30.0)
